Data published in PMC11394167, “Purification and Identification of Novel Dipeptidyl Peptidase IV Inhibitory Peptides Derived from Bighead Carp (Hypophthalmichthys nobilis)” (Foods, 2024).
Like-named read-outs stand apart in the source and are kept apart here. Where a SMILES comes first, the peptide text is derived from it.

Assays:
[1] = molecular target: T1, DPP-IV (Homo sapiens, UniProt P27487); settings: cited from earlier work
T1 construct: purchased Abnova KA1311
Description: Diabetes is a chronic disease marked by high blood sugar levels and disruptions in fat and protein metabolism due to insulin resistance and deficiency. It is categorized into three types: type 1, type 2, and gestational diabetes. As reported by the International Diabetes Federation (IDF), approximately 537 million adults (aged 20–79 years) were living with diabetes in 2021, a number expected to rise to 700 million by 2045 [7]. Type 2 diabetes mellitus (T2DM) constitutes about 90% of these cases. Without treatment, T2DM can lead to severe complications such as coronary issues, retinopat ... || The results of mass spectrometry identification guided the screening of peptide sequences based on certain criteria. […] In the current landscape of research aiming to identify DPP-IV inhi ...

[2] = molecular target: T1, DPP-IV; assay: DPP-IV inhibitor screening assay (KA1311 kit, Gly-Pro-AMC); format: biochemical; settings: synthetic peptides; 37 °C, 30 min; Gly-Pro-AMC substrate; fluorescence ex 350 nm / em 460 nm; mean ± standard deviation (n = 3); read-out: IC50 (DPP-IV inhibition)
Description: The DPP-IV inhibition rate and the corresponding IC50 of each component were determined using the DPP-IV inhibitor screening assay kit (KA1311, Abnova, Taipei, Taiwan, China). For each component, extracts were mixed with buffer solution at various concentrations (1 mg/mL, 0.1 mg/mL, 0.05 mg/mL, 0.01 mg/mL), DPP-IV, and the substrate (Gly-Pro-AMC solution) in 96-well plates. The reaction was conducted at the normal human body temperature of 37 °C for 30 min. Free AMC (7-amino-4-methylcoumarin) was quantified using a multifunctional fluorescent zymography assay, with excitation light at 350 nm and emission light at 460 nm, and expressed as fluorescence intensity. The positive control utilized was 1 μg/mL of […]. A standard curve for all inhibition rates was plotted, and the maximum half inhibitory concentration (IC50) value of each peptide was determined using GraphPad Prism 9.5.1. DPP-IV inhibition (%) = {(F initial activity − F sample)/F initial activity} × 100%(2)
The DPP-IV inhibitory activity assay was performed in three parallel groups, and IC50 data were expressed as the mean ± standard deviation (S.D.). Data were analyzed using SPSS 20.0 software (SPSS Inc., Chicago, IL, USA) for unifactorial and bifactorial analyses, and the significance of the data was indicated by p < 0.05.

[3] = molecular target: T1, DPP-IV; assay: DPP-IV inhibition pattern (Lineweaver–Burk plots); format: biochemical; settings: substrate 20, 15, 10, 5, 1 μM, peptide greater than IC50, less than IC50, and 0
Description: The pattern of DPP4 inhibition of synthetic peptides was further analyzed using Lineweaver–Burk plots. Images were plotted at different concentrations of substrates (20, 15, 10, 5, 1 μM) and peptide solution (concentration was greater than IC50, less than IC50, and 0) with 1/[S] as the X-value and 1/V as the Y-value. The mode of inhibition of DPP-IV by the synthetic peptide was determined based on the intercept of the Lineweaver–Burk curve.

[4] = side effects such as nausea; cited from earlier work
Description: Diabetes is a chronic disease marked by high blood sugar levels and disruptions in fat and protein metabolism due to insulin resistance and deficiency. It is categorized into three types: type 1, type 2, and gestational diabetes. As reported by the International Diabetes Federation (IDF), approximately 537 million adults (aged 20–79 years) were living with diabetes in 2021, a number expected to rise to 700 million by 2045 [7]. Type 2 diabetes mellitus (T2DM) constitutes about 90% of these cases. Without treatment, T2DM can lead to severe complications such as coronary issues, retinopat ...

T1 sequence (P27487 whole entry): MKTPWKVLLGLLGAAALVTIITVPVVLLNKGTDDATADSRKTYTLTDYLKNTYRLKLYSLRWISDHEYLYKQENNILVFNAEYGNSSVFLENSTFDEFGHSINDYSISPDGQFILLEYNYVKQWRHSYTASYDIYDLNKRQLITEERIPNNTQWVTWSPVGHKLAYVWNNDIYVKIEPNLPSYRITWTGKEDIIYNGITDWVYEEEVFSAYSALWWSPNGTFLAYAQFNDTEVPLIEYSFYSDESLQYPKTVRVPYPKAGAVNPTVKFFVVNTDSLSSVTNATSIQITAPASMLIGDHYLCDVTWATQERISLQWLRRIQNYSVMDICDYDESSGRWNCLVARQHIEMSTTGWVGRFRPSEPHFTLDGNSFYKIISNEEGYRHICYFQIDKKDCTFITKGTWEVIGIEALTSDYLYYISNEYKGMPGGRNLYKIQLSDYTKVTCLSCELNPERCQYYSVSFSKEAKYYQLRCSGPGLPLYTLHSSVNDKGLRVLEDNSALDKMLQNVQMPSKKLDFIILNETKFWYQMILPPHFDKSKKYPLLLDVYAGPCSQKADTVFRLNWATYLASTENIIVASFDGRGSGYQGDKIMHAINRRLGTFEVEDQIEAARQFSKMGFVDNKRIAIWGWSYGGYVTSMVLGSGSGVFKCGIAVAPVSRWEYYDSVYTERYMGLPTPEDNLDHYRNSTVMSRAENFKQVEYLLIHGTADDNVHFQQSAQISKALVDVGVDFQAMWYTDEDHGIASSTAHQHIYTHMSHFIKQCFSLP

GPAG [peptide (300.4 Da) from pig skin gelatin hydrolysate]
IC50 ([1]; peptides from pig skin gelatin hydrolysate): 41.9 µM

O=C(CNC(=O)[C@@H]1CCCN1C(=O)[C@@H]1CCCN1)N[C@@H](Cc1ccccc1)C(=O)O [PPGF] (H-PPGF-OH)
IC50 [2]: 0.00463 ± 0.00156 µM

WGDEHIPGSPYH [previously reported peptide from silver carp]
IC50 ([1]; from silver carp): 350 µM

YYGYTGAFR [previously reported peptide from Atlantic salmon]
IC50 ([1]; from Atlantic salmon): 1100 µM

IPSK
DPP-IV inhibitory effect ([1]; peptides from milk proteins): DPP-IV inhibitory effects

CC(C)[C@H](N)C(=O)N[C@@H](Cc1ccc(O)cc1)C(=O)N1CCC[C@H]1C(=O)O [VYP] (H-Val-Tyr-Pro-OH)
IC50 [2]: 0.399 ± 0.0474 µM

CC(C)C[C@H](NC(=O)CNC(=O)[C@@H]1CCCN1)C(=O)N[C@H](C(=O)NCC(=O)O)C(C)C [PGLVG] (H-PGLVG-OH)
IC50 [2]: 0.11 ± 0.0431 µM | effect on Km [3]: Km is increased

CN(C)C(=N)N=C(N)N [Metformin]
patients suffering from side effects [4]: around 30%

YPFPGP [previously reported peptide extracted from milk]
IC50 ([1]; extracted from milk): 749 µM

CC(C)[C@H](NC(=O)[C@@H](N)Cc1ccccc1)C(=O)N[C@@H](C)C(=O)O [FVA] (H-Phe-Val-Ala-OH)
IC50 [2]: 0.402 ± 0.00528 µM | effect on Km [3]: increased Km
